Read-outs that look alike come from different tables or passages of the source.
What was measured:
[1] = guinea pig, in vivo
[2] = Plasma binding study (PD10 column), human plasma; format: in vitro ADME; conditions: for percent recovery of Tc99m activity: human, plasma; for binding to / interaction with human plasma: in words
Protocol: (§1) 1 ml sample of guinea pig or human plasma or saline (control) were added to 2 ml Eppendorf tubes. To these were then added 100 ul aliquots of the ^99m Tc preparation being studied. Mixing was performed by inverting the tubes several times. A 50 ul sample was then taken for counting and the remainder of the sample (1050 ul) was quantitatively transferred to the top of the PD10 column. The sample was allowed to enter the column matrix and then washed in with 1.5 mls saline. Initially a 2.5 ml aliquot was collected for counting, (dead volume) subsequently 0.5 ml aliquots were collected until a total volume of 16 mls had been used to elute the column. […] Collected fractions were counted in a γ well counter and a graph plotted of percentage recovery was calculated from initial preloading sample and cumulative counts.

[3] = rat, in vivo
[4] = Guinea pig biodistribution of Tc-99m complexes; conditions: 60 min p.i.
[5] = Protein binding, statement in words; format: in vitro ADME
[6] = Rat biodistribution of Tc-99m complexes
[7] = guinea pig, serum
Protocol: as §1

[8] = in vivo
[9] = saline
Protocol: as §1

[10] = Hydrophilicity, statement in words; format: physicochemical; conditions: compared with complex TcL2O2+ (L=P53), as indicated by urinary output
[11] = Heart uptake and urinary output, statement in words; conditions: species not stated

For CCOCC[P+]1(CCOCC)CC[P+](CCOCC)(CCOCC)[Tc-3]12([Cl])([Cl])[P+](CCOCC)(CCOCC)CC[P+]2(CCOCC)CCOCC, which “blood and liver clearance” value [1] is on record?
Its value is “good”.

What about the heart uptake [1] of the same compound?
Its heart uptake is “good heart uptake”.

What about the wash-out from heart [1] of the same compound?
Its wash-out from heart is “washes out of the respective hearts”.

What about the Blood ([1]; 2 min) of the same compound?
Its Blood is 3.50 % Injected dose/organ.

And the Heart ([1]; 2 min)?
Its Heart is 1.89 % Injected dose/organ.

And the “Heart/Blood Counts/Gram Ratio” value ([1]; 2 min)?
The value was 12.72.

And the “Heart/Liver Counts/Gram Ratio” value ([1]; 2 min)?
The value was 2.13.

And the “Heart/Muscle Counts/Gram Ratio” value ([1]; 2 min)?
Its value is 4.48.

And the “Kidney + Urine” value ([1]; 2 min)?
The value was 6.98 % Injected dose/organ.

And the Liver ([1]; 2 min)?
Its Liver is 13.74 % Injected dose/organ.

And the “Liver + GI” value ([1]; 2 min)?
The value was 18.72 % Injected dose/organ.

And the Lung ([1]; 2 min)?
The Lung was 3.11 % Injected dose/organ.

And the Muscle ([1]; 2 min)?
The Muscle was 61.65 % Injected dose/organ.

And the Blood ([1]; 60 min)?
The Blood was 0.58 % Injected dose/organ.

And the Heart ([1]; 60 min)?
Its Heart is 0.13 % Injected dose/organ.

And the “Heart/Blood Counts/Gram Ratio” value ([1]; 60 min)?
The value was 5.35.

And the “Heart/Liver Counts/Gram Ratio” value ([1]; 60 min)?
Its value is 0.72.

And the “Heart/Muscle Counts/Gram Ratio” value ([1]; 60 min)?
The value was 1.13.

What about the “Kidney + Urine” value ([1]; 60 min) of the same compound?
Its value is 3.20 % Injected dose/organ.

What about the Liver ([1]; 60 min) of the same compound?
Its Liver is 3.16 % Injected dose/organ.

And the “Liver + GI” value ([1]; 60 min)?
The value was 62.38 % Injected dose/organ.

What about the Lung ([1]; 60 min) of the same compound?
Its Lung is 0.30 % Injected dose/organ.

What about the Muscle ([1]; 60 min) of the same compound?
The Muscle was 15.16 % Injected dose/organ.

What about the “percent recovery of Tc99m activity” value [2] of the same compound?
The value was 93.8%.

And the “binding to / interaction with human plasma” value [2]?
The value was “possible slight interaction”.

And the “blood and liver clearance” value [3]?
Its value is “good”.

What about the heart uptake [3] of the same compound?
Its heart uptake is “good heart uptake”.

What about the wash-out from heart [3] of the same compound?
Its wash-out from heart is “washes out of the respective hearts”.

What about the Blood ([3]; 2 min) of the same compound?
Its Blood is 5.24 % Injected dose/organ.

What about the Heart ([3]; 2 min) of the same compound?
Its Heart is 1.51 % Injected dose/organ.

What about the “Heart/Blood Counts/Gram Ratio” value ([3]; 2 min) of the same compound?
The value was 3.90.

And the “Heart/Liver Counts/Gram Ratio” value ([3]; 2 min)?
Its value is 0.64.

What about the “Heart/Muscle Counts/Gram Ratio” value ([3]; 2 min) of the same compound?
The value was 4.68.

And the “Kidney + Urine” value ([3]; 2 min)?
Its value is 4.48 % Injected dose/organ.

What about the Liver ([3]; 2 min) of the same compound?
The Liver was 28.87 % Injected dose/organ.

And the “Liver + GI” value ([3]; 2 min)?
The value was 41.13 % Injected dose/organ.

What about the Lung ([3]; 2 min) of the same compound?
The Lung was 1.45 % Injected dose/organ.

What about the Muscle ([3]; 2 min) of the same compound?
The Muscle was 34.92 % Injected dose/organ.

And the Blood ([3]; 60 min)?
Its Blood is 0.71 % Injected dose/organ.

And the Heart ([3]; 60 min)?
The Heart was 0.16 % Injected dose/organ.

And the “Heart/Blood Counts/Gram Ratio” value ([3]; 60 min)?
The value was 3.09.

What about the “Heart/Liver Counts/Gram Ratio” value ([3]; 60 min) of the same compound?
The value was 0.46.

And the “Heart/Muscle Counts/Gram Ratio” value ([3]; 60 min)?
The value was 1.41.

And the “Kidney + Urine” value ([3]; 60 min)?
The value was 4.95 % Injected dose/organ.

What about the Liver ([3]; 60 min) of the same compound?
Its Liver is 4.78 % Injected dose/organ.

And the “Liver + GI” value ([3]; 60 min)?
Its value is 61.34 % Injected dose/organ.

And the Lung ([3]; 60 min)?
The Lung was 0.47 % Injected dose/organ.

What about the Muscle ([3]; 60 min) of the same compound?
Its Muscle is 11.68 % Injected dose/organ.

Which “Heart/Lung Counts/Gram Ratio” value [4] does the source give for CCOCC[P+]1(CCOCC)CC[P+](CCOCC)(CCOCC)[Tc-3]12(=[O])(=[O])[P+](CCOCC)(CCOCC)CC[P+]2(CCOCC)CCOCC [[TcO2 (P53)2]^+] here?
The value was 2.0.

And the protein binding [5]?
The protein binding was “low protein binding”.

What about the “Heart/Blood Counts/Gram Ratio” value ([6]; 2 min p.i.) of the same compound?
The value was 10.5.

What about the “Heart/Liver Counts/Gram Ratio” value ([6]; 2 min p.i.) of the same compound?
The value was 1.52.

And the “Heart/Lung Counts/Gram Ratio” value ([6]; 2 min p.i.)?
The value was 2.0.

What about the Liver ([6]; 60 min p.i.) of the same compound?
The Liver was 1.62 % Injected dose/organ.

What about the Blood ([1]; 2 min) of the same compound?
Its Blood is 3.11 % Injected dose/organ.

And the Heart ([1]; 2 min)?
The Heart was 1.33 % Injected dose/organ.

And the “Heart/Blood Counts/Gram Ratio” value ([1]; 2 min)?
Its value is 10.9.

What about the “Heart/Liver Counts/Gram Ratio” value ([1]; 2 min) of the same compound?
The value was 1.90.

What about the “Heart/Lung Counts/Gram Ratio” value ([1]; 2 min) of the same compound?
The value was 1.2.

And the “Heart/Muscle Counts/Gram Ratio” value ([1]; 2 min)?
The value was 6.12.

And the “Kidney + Urine” value ([1]; 2 min)?
Its value is 16.7 % Injected dose/organ.

And the Liver ([1]; 2 min)?
Its Liver is 11.6 % Injected dose/organ.

And the “Liver + GI” value ([1]; 2 min)?
The value was 38.7 % Injected dose/organ.

What about the Lung ([1]; 2 min) of the same compound?
The Lung was 1.14 % Injected dose/organ.

What about the Muscle ([1]; 2 min) of the same compound?
The Muscle was 30.0 % Injected dose/organ.

And the Blood ([1]; 60 min)?
The Blood was 0.41 % Injected dose/organ.

What about the Heart ([1]; 60 min) of the same compound?
Its Heart is 0.99 % Injected dose/organ.

And the “Heart/Blood Counts/Gram Ratio” value ([1]; 60 min)?
The value was 61.9.

What about the “Heart/Liver Counts/Gram Ratio” value ([1]; 60 min) of the same compound?
Its value is 7.51.

And the “Heart/Muscle Counts/Gram Ratio” value ([1]; 60 min)?
The value was 4.10.

And the “Kidney + Urine” value ([1]; 60 min)?
The value was 16.1 % Injected dose/organ.

What about the Liver ([1]; 60 min) of the same compound?
Its Liver is 2.13 % Injected dose/organ.

And the “Liver + GI” value ([1]; 60 min)?
The value was 44.6 % Injected dose/organ.

And the Lung ([1]; 60 min)?
The Lung was 0.47 % Injected dose/organ.

And the Muscle ([1]; 60 min)?
The Muscle was 43.4 % Injected dose/organ.

And the “percent recovery of Tc99m activity” value [7]?
The value was 90.34%.

And the “percent recovery of Tc99m activity” value [2]?
Its value is 65.23%.

And the “binding to / interaction with human plasma” value [2]?
The value was “no significant binding”.

And the heart uptake [8]?
The heart uptake was “good heart uptake”.

What about the Blood ([3]; 2 min) of the same compound?
The Blood was 2.25 % Injected dose/organ.

What about the Brian ([3]; 2 min) of the same compound?
The Brian was 0.03 % Injected dose/organ.

What about the Heart ([3]; 2 min) of the same compound?
Its Heart is 1.66 % Injected dose/organ.

And the “Heart/Muscle Counts/Gram Ratio” value ([3]; 2 min)?
The value was 5.94.

What about the “Kidney + Urine” value ([3]; 2 min) of the same compound?
The value was 13.2 % Injected dose/organ.

And the Liver ([3]; 2 min)?
Its Liver is 14.1 % Injected dose/organ.

And the “Liver + GI” value ([3]; 2 min)?
The value was 37.8 % Injected dose/organ.

What about the Lung ([3]; 2 min) of the same compound?
The Lung was 1.44 % Injected dose/organ.

What about the Muscle ([3]; 2 min) of the same compound?
The Muscle was 31.6 % Injected dose/organ.

And the Blood ([3]; 60 min)?
Its Blood is 0.28 % Injected dose/organ.

What about the Brian ([3]; 60 min) of the same compound?
Its Brian is 0.02 % Injected dose/organ.

What about the Heart ([3]; 60 min) of the same compound?
Its Heart is 1.68 % Injected dose/organ.

And the “Heart/Blood Counts/Gram Ratio” value ([3]; 60 min)?
Its value is 86.4.

What about the “Heart/Liver Counts/Gram Ratio” value ([3]; 60 min) of the same compound?
Its value is 14.4.

What about the “Heart/Lung Counts/Gram Ratio” value ([3]; 60 min) of the same compound?
The value was 4.3.

And the “Heart/Muscle Counts/Gram Ratio” value ([3]; 60 min)?
Its value is 5.74.

What about the “Kidney + Urine” value ([3]; 60 min) of the same compound?
Its value is 9.29 % Injected dose/organ.

What about the “Liver + GI” value ([3]; 60 min) of the same compound?
Its value is 42.5 % Injected dose/organ.

And the Lung ([3]; 60 min)?
The Lung was 0.65 % Injected dose/organ.

And the Muscle ([3]; 60 min)?
The Muscle was 31.6 % Injected dose/organ.

What about the “percent recovery of Tc99m activity” value [9] of the same compound?
The value was 90.82%.

For COCCCP(CCCOC)CCP(CCCOC)CCCOC [Compound 3], which Blood ([6]; 2 min p.i.) is on record?
The Blood was 18.8 % Injected dose/organ.

What about the Heart ([6]; 2 min p.i.) of the same compound?
Its Heart is 0.44 % Injected dose/organ.

And the “Heart/Blood Counts/Gram Ratio” value ([6]; 2 min p.i.)?
The value was 0.35.

What about the “Heart/Liver Counts/Gram Ratio” value ([6]; 2 min p.i.) of the same compound?
The value was 1.71.

What about the Liver ([6]; 2 min p.i.) of the same compound?
The Liver was 3.62 % Injected dose/organ.

What about the Blood ([6]; 60 min p.i.) of the same compound?
Its Blood is 0.77 % Injected dose/organ.

And the Heart ([6]; 60 min p.i.)?
The Heart was 0.09 % Injected dose/organ.

What about the “Heart/Blood Counts/Gram Ratio” value ([6]; 60 min p.i.) of the same compound?
Its value is 1.82.

And the “Heart/Liver Counts/Gram Ratio” value ([6]; 60 min p.i.)?
The value was 0.88.

What about the Liver ([6]; 60 min p.i.) of the same compound?
Its Liver is 1.35 % Injected dose/organ.

What about the hydrophilicity [10] of the same compound?
Its hydrophilicity is “substantially higher hydrophilicity”.

What about the heart uptake [11] of the same compound?
Its heart uptake is “low heart uptake”.

What about the urinary output [11] of the same compound?
Its urinary output is “high urinary output”.

For C1OCC(CP(CCP(CC2COCO2)CC2COCO2)CC2COCO2)O1 (stereo not drawn) [Compound 21], which Blood ([6]; 2 min p.i.) is on record?
The Blood was 18.6 % Injected dose/organ.

And the Heart ([6]; 2 min p.i.)?
The Heart was 0.37 % Injected dose/organ.

What about the “Heart/Blood Counts/Gram Ratio” value ([6]; 2 min p.i.) of the same compound?
Its value is 0.33.

And the “Heart/Liver Counts/Gram Ratio” value ([6]; 2 min p.i.)?
The value was 0.58.

What about the Liver ([6]; 2 min p.i.) of the same compound?
Its Liver is 9.83 % Injected dose/organ.

And the Blood ([6]; 60 min p.i.)?
The Blood was 1.14 % Injected dose/organ.

And the Heart ([6]; 60 min p.i.)?
Its Heart is 0.04 % Injected dose/organ.

And the “Heart/Blood Counts/Gram Ratio” value ([6]; 60 min p.i.)?
Its value is 0.5.

What about the “Heart/Liver Counts/Gram Ratio” value ([6]; 60 min p.i.) of the same compound?
Its value is 0.26.

What about the Liver ([6]; 60 min p.i.) of the same compound?
Its Liver is 1.95 % Injected dose/organ.
